# Measured values as given in patent US20130014428A1, “METHODS OF MONITORING AND CONTROLLING THE WALNUT TWIG BEETLE, PITYOPHTHORUS JUGLANDIS” (The United States of America as Represented by the …, priority 2011, published 2013).
# Legend:
# [1] = test system: walnut twig beetle (WTB), Pityophthorus juglandis; experiment: Example 1 Field Test 1: flight response to X and related isomers, yellow sticky card traps; type: in vivo; settings: Davis CA; for trap catches, female WTB / trap catches, male WTB: about three months in summer, N=21
# Description: Field Bioassays of Semiochemicals. […] Contech Enterprises Inc., Delta, British Columbia, Canada) and attached to yellow sticky card traps ([…], OK). In addition, synthesized (+) and (-) enantiomers of trans-conophthorin were tested in 400 μl polyethylene Eppendorf microcentrifuge tubes. Four field studies were conducted (Table 2) that tested the flight responses to: 3-methyl-2-buten-l-ol and related isomers (Field Test 1); 3-methyl-2-buten-l-ol with and without racemic trans-conophthorin (Field Test 2); 3-methyl-2-buten-l-ol with and without the purified enantiomers of trans-conophthorin (Field Test 3); and 3-methyl-2-buten-l-ol with and without racemic chalcogran (Field Test 4). [table] Statistical Analysis. Field Tests 1-4 were each analyzed for treatment effect by using Friedman's non-parametric analysis of variance. (See Zar, J. H. 2010. Biostatistical Analysis, 5th Ed. Pearson Prentice Hall, New Jersey). Males and females were subjected to separate analyses. All treatments within experiments yielding a significant treatment effect were compared by using an a posteriori Nemenyi test (Zar 2010) with experimentwise α=0.05. Sex ratios of responding WTB were determined using Cochran's method for unbiased sampling (See Cochran, W. G. 1977. Sampling Techniques, 3rd ed. John Wiley, New York), with 95% confidence intervals calculated by using the Clopper-Pearson method. (See Zar, J. H. 2010. Biostatistical Analysis, 5th Ed. Pearson Prentice Hall, New Jersey).
# WTB [2] = experiment: Example 2 Field Test 1: X in combination with X-3 and X-2; type: in vivo, Pityophthorus juglandis; settings: alone or in combination, at the release rates tested
# Description: Field Bioassays of 3-methyl-2-buten-1-ol in combination with other compounds. The flight response of WTB to 3-methyl-2-buten-1-ol in combination with other compounds was also tested. […] Louis, Mo. […] The five treatments were replicated in three spatial blocks and the treatments were re-randomized among the five trap stations in a block each time the traps were emptied (nearly every day). [table] Statistical Analyses. Analysis of treatment effects for the pouch vs. bottle experiment was done by using a sign test. (See Zar, J. H. 2010. Biostatistical Analysis. 5th ed. Pearson Prentice Hall, Englewood Cliffs, N.J.) The other four experiments were analyzed for treatment effect by using Friedman's non-parametric analysis of variance. Id. In all experiments, males and females were analyzed separately. All treatments within experiments yielding a significant treatment effect were compared by using an a posteriori Nemenyi test with experimentwise α=0.05. Id. For all experiments, differences among proportions of female WTB responding to treatments were analyzed by comparing 95% confidence intervals determined with the Clopper-Pearson method. Id.
# WTB [3] = experiment: Example 2 Field Test 3: X and racemic trans-pityol; type: in vivo, Pityophthorus juglandis
# Description: Finally, a flight bioassay of the effect of the compound racemic trans-“pityol” [2-(1-hydroxy-1-methylethyl)-5-methyltetrahydrofuran] was conducted in late summer/early fall at Wolfskill Experimental Orchards. Pityol is a component of the aggregation pheromone of conifer-infesting Pityophthorus species. The response of WTB to racemic trans-pityol (formulated in a polyvinylchloride plastic bubble cap release device, 40 mg load, 0.2 mg/d release rate at 20° C., product #300000272, Contech Enterprises) and pityol in combination with 3-methyl-2-buten-1-ol (release rate 15-80 mg/d, LDPE plastic pouch Contech) was tested (Table 3, Field Test 3). The four treatments were replicated in three spatial blocks and the treatments were re-randomized among the four trap stations in a block each time the traps were emptied (nearly every day).
# Statistical Analyses. Analysis of treatment effects for the pouch vs. bottle experiment was done by using a sign test. (See Zar, J. H. 2010. Biostatistical Analysis. 5th ed. Pearson Prentice Hall, Englewood Cliffs, N.J.) The other four experiments were analyzed for treatment effect by using Friedman's non-parametric analysis of variance. Id. In all experiments, males and females were analyzed separately. All treatments within experiments yielding a significant treatment effect were compared by using an a posteriori Nemenyi test with experimentwise α=0.05. Id. For all experiments, differences among proportions of female WTB responding to treatments were analyzed by comparing 95% confidence intervals determined with the Clopper-Pearson method. Id.
# [4] = test system: walnut twig beetle (WTB), Pityophthorus juglandis; experiment: Example 1 Field Test 4: flight response to X with and without racemic chalcogran; type: in vivo
# Description: (§1) Field Bioassays of Semiochemicals. To test the attractiveness of the various compounds of interest, some of the commercially available materials listed above were poured into 15 ml capped polyethylene bottles (Product #s A1-1050/002, A1-1055/002; Contech Enterprises Inc., Delta, British Columbia, Canada) and attached to yellow sticky card traps (Trécé, Adair, OK). In addition, synthesized (+) and (−) enantiomers of trans-conophthorin were tested in 400 μl polyethylene Eppendorf microcentrifuge tubes. Four field studies were conducted (Table 2) that tested the flight responses to: 3-methyl-2-buten-l-ol and related isomers (Field Test 1); 3-methyl-2-buten-l-ol with and without racemic trans-conophthorin (Field Test 2); 3-methyl-2-buten-l-ol with and without the purified enantiomers of trans-conophthorin (Field Test 3); and 3-methyl-2-buten-l-ol with and without racemic chalcogran (Field Test 4).
# (§2) Statistical Analysis. Field Tests 1-4 were each analyzed for treatment effect by using Friedman's non-parametric analysis of variance. (See Zar, J. H. 2010. Biostatistical Analysis, 5th Ed. Pearson Prentice Hall, New Jersey). Males and females were subjected to separate analyses. All treatments within experiments yielding a significant treatment effect were compared by using an a posteriori Nemenyi test (Zar 2010) with experimentwise α=0.05. Sex ratios of responding WTB were determined using Cochran's method for unbiased sampling (See Cochran, W. G. 1977. Sampling Techniques, 3rd ed. John Wiley, New York), with 95% confidence intervals calculated by using the Clopper-Pearson method. (See Zar, J. H. 2010. Biostatistical Analysis, 5th Ed. Pearson Prentice Hall, New Jersey).
# [5] = test system: walnut twig beetle (WTB), Pityophthorus juglandis; experiment: Example 1 Field Test 3: flight response to X with and without enantiomers of trans-conophthorin; type: in vivo; settings: enantiomers of Y tested separately
# Description: as §1, §2
# P. juglandis = experiment: GC-EAD (electroantennal detection) of volatile extract; parameters: species or system Pityophthorus juglandis; settings: extract of J. hindsii with male and female P. juglandis feeding 45 hr
# Description: Gas Chromatography-Electroantennal Detection (GC-EAD). GC-EAD analysis was performed on the extract of walnut (Juglans hindsii) with male and female P. juglandis feeding for 45 hr (pentane extract (7)). The sample was analyzed with an HP5890 GC with the following conditions: DB-5 column 30 m×0.32, oven 50° C. for 1 min, temperature programmed at 20° C./min to a final temperature of 280° C.
# [6] = test system: walnut twig beetle (WTB), Pityophthorus juglandis; experiment: Example 1 Field Test 2: flight response to X with and without racemic conophthorin; type: in vivo; settings: tested as a racemic mixture
# Description: as §1, §2
# [7] = 4-unit Lindgren funnel traps, X 15-80 mg/d, pityol 0.2 mg/d, N=93
# [8] = yellow sticky card traps, about one month late summer, Davis CA, N=13
smiles,measurement,setting,value
"CC(C)=CC=O [X-1, 3-methyl-2-butenal]",proportion of females responding,[1],0.65
same,"trap catches, female WTB",[1],20
same,"trap catches, male WTB",[1],11
"CC(C)CCO [X-2, 3-methyl-1-butanol]",proportion of females responding,[1],0.48
same,"trap catches, female WTB",[1],21
same,"trap catches, male WTB",[1],23
same,effect on flight response to 3-methyl-2-buten-1-ol,WTB [2],did not significantly affect the flight response of WTB
"CC1CCC(C(C)(C)O)O1 (racemic) [pityol, 2-(1-hydroxy-1-methylethyl)-5-methyltetrahydrofuran]",proportion of females responding,WTB [3]; 4-unit Lindgren funnel traps,0.24
same,"trap catches, female WTB",WTB [3]; [7],11
same,"trap catches, male WTB",WTB [3]; [7],32
same,effect on response to 3-methyl-2-buten-1-ol,WTB [3]; at the release rates tested,did not significantly affect the response to 3-methyl-2-buten-1-ol
"CCC1CCC2(CCCO2)O1 (stereo not shown) [Z, 2-ethyl-1,6,-dioxaspiro [4,4]nonane]",effect on flight response,[4]; tested as a racemic mixture,interruptive or repellent
same,proportion of females responding,"[4]; yellow sticky card traps, Davis CA",0.67
same,"trap catches, female WTB",[4]; [8],½
same,"trap catches, male WTB",[4]; [8],½
"C=C(C)CCO [X-3, 3-methyl-3-buten-1-ol]",proportion of females responding,[1],0.33
same,"trap catches, female WTB",[1],2
same,"trap catches, male WTB",[1],4
same,effect on flight response to 3-methyl-2-buten-1-ol,WTB [2],did not significantly affect the flight response of WTB
"CC1CCCC2(CCCO2)O1 (single isomer, unassigned; (-)) [(−)-Y, (−)-trans-conophthorin]",effect on flight response,[5],behaviorally active component
"CC1CCCC2(CCCO2)O1 (racemic) [Y, 7-methyl-1,6-dioxaspiro[4,5]decane]",antennal activity by GC-EAD,P. juglandis,antenally active
same,effect on flight response,[6],interruptive or repellent
